This is an account of results in patent publication US20130065883A1 (Centro Nacional de Investigaceiones Oncologicas (CNIO), priority 2010, published 2013).

Where two headings read alike, the source gives them in different places.

Test [1] addresses T1, PIM-2 (Homo sapiens, UniProt Q9P1W9).
T1 construct: histidine tag (N); made in house
Kind of test: PIM-2 biochemical assay (ADP Hunter).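 Also: recombinant N-terminally His-tagged human enzyme, kinase activity quantified by detection of ADP formed as the direct reaction product.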 Particulars: semi-quantitative class; read-out: PIM2 IC50.

In test [2] the target is T2, PIM-3 (Homo sapiens, UniProt Q86V86).
T2 construct: purchased Millipore 14-738
Kind of test: PIM-3 biochemical assay (ADP Hunter).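 Also: kinase activity read out as the quantity of ADP generated by the enzyme reaction.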 As to conditions: read-out: PIM3 IC50.

Test [3] concerns the target T3, FLT3 (Homo sapiens, UniProt P36888).
T3 sequence (P36888 27-993): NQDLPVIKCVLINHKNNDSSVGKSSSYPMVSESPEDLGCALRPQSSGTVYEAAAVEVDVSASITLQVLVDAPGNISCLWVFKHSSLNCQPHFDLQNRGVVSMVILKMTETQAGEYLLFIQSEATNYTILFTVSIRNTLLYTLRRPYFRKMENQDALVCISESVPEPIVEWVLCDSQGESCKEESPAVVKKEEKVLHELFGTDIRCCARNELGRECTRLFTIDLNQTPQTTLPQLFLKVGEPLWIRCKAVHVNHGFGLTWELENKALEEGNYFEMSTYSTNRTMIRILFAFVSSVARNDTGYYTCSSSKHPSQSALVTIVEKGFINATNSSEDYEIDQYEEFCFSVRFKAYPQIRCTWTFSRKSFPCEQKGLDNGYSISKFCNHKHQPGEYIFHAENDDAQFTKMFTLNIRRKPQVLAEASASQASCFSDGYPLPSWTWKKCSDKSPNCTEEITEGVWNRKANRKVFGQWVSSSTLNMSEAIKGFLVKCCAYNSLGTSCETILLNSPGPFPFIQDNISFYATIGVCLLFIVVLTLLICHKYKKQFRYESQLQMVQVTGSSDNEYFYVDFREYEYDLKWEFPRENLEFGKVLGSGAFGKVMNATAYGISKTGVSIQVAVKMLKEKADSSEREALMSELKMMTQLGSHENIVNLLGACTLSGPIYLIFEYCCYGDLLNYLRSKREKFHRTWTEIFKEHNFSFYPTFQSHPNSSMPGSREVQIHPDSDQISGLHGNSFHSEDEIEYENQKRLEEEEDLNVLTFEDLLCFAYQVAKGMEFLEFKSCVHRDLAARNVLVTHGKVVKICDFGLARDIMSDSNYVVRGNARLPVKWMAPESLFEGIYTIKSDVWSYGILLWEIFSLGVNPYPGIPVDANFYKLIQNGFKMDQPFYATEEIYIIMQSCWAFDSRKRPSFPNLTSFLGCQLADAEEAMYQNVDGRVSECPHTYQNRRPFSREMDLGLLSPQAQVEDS
Kind of test: FLT3 biochemical assay (ADP Hunter).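 Also: FLT3 enzymatic activity quantified through the ADP produced by the kinase reaction, detected with an ADP Hunter readout.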

Test [4] has as its target T4, PIM-1 (Homo sapiens, UniProt P11309).
T4 construct: histidine tag (C); made in house
Kind of test: PIM-1 biochemical assay (ADP Hunter).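 Also: recombinant human PIM-1 carrying a C-terminal His tag, kinase activity quantified via ADP formed as the direct enzymatic product.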 As to conditions: read-out: PIM1 IC50.

Test [5] deals with tumor cell lines. Briefly: Combination assay (MTT in vitro cell proliferation, combination index). The class given is cell-based. As to conditions: for EC50: read-out: Chemo EC50.
Where [6] appears, read: Homo sapiens, MIA PaCa-2, MiaPaca-2, pancreas, chemotherapeutic alone.
Setting [7] is: actual IC50 value in parentheses.

T1 sequence (Q9P1W9 whole entry): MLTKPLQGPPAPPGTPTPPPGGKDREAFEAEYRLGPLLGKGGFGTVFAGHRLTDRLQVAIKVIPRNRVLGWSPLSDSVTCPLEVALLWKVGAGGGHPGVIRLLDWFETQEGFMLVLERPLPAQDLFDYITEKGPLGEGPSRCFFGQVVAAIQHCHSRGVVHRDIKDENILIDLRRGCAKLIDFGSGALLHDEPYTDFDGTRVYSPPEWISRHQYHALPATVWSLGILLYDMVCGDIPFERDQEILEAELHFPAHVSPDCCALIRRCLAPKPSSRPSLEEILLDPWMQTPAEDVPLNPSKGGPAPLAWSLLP
T4 sequence (P11309 whole entry): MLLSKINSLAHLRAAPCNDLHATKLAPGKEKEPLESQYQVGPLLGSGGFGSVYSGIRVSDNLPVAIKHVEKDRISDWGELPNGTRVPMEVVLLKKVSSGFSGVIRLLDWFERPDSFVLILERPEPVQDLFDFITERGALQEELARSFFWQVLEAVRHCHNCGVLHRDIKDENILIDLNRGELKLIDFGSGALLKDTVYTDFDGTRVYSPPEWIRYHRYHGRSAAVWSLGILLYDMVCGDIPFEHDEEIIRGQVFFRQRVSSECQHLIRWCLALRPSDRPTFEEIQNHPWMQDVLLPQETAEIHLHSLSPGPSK

`FC(F)(F)Oc1cccc(-n2nnc3ccc(N4CCNCC4)nc32)c1` [2-69]: the figures for the IC50 in test [1], in test [2] (semi-quantitative class) and in test [3] (semi-quantitative class) were more than 1000 nM, 100 to 1000 nM and more than 1000 nM, respectively.

As for `OC1CCN(c2ccc3nnn(-c4cccc(OC(F)(F)F)c4)c3n2)CC1` [2-70], the IC50 was 100 to 1000 nM in test [1], 100 to 1000 nM in test [2] (semi-quantitative class), 100 to 1000 nM in test [4] (semi-quantitative class) and more than 1000 nM in test [3] (semi-quantitative class).

Take `CNC1CCN(c2ccc3nnn(-c4cccc(OC(F)(F)F)c4)c3n2)CC1` [2-44]: the figures for the IC50 in test [1], in test [2] (semi-quantitative class) and in test [3] (semi-quantitative class) were more than 1000 nM, 100 to 1000 nM and more than 1000 nM, respectively.

As to `FC(F)(F)Oc1cccc(-n2nnc3ccc(N4CCCC5(CCNCC5)C4)nc32)c1` [2-59], the IC50 in test [1] was more than 1000 nM; in test [2] (semi-quantitative class), 100 to 1000 nM; in test [4] (semi-quantitative class), less than 100 nM; in test [3] (semi-quantitative class), more than 1000 nM.

With `Nc1ccn([C@@H]2O[C@H](CO)[C@@H](O)C2(F)F)c(=O)n1` [Gemcitabine, 4-amino-1-[3,3-difluoro-4-hydroxy-5-(hydroxymethyl)tetrahydrofuran-2-yl]-1H-pyrimidin-2-one, reference compound], in test [5] (setting [6]), the EC50 was found to be 50 nM.

For `COc1cc(NC2CC3(CCNCC3)C2)nc2c1nnn2-c1cccc(N(C)C)c1` [2-96], the IC50 in test [1] was more than 1000 nM; in test [2] (setting [7]), 68 nM; in test [2] (semi-quantitative class), less than 100 nM; in test [4] (setting [7]) it was 32 nM; in test [4] (semi-quantitative class), less than 100 nM; in test [3] (semi-quantitative class), more than 1000 nM.

Turning to `Oc1ccc(-n2nnc3ccc(NCc4ccc(F)cc4)nc32)cc1` [2-04, 4-[5-(4-Fluoro-benzylamino)-[1,2,3]triazolo[4,5-b]pyridin-3-yl]-phenol], the IC50 in test [1] was 100 to 1000 nM; in test [2] (setting [7]), 51 nM; in test [2] (semi-quantitative class) it was less than 100 nM; in test [3] (semi-quantitative class) it was more than 1000 nM.

Regarding `FC(F)(F)Oc1cccc(-n2nnc3cc(Br)c(NCC4CCNCC4)nc32)c1` [2-89], the IC50 in test [1] is 100 to 1000 nM; in test [2] (setting [7]), 8 nM; in test [2] (semi-quantitative class), less than 100 nM; in test [4] (setting [7]), 11 nM; in test [4] (semi-quantitative class), less than 100 nM; in test [3] (setting [7]), 58 nM. In addition, the IC50 in test [3] (semi-quantitative class) was less than 100 nM.

As for `Oc1ccc(-n2nnc3ccc(NCC4CCNCC4)nc32)cc1` [2-32], the IC50 in test [1] was more than 1000 nM; in test [2] (setting [7]), 15 nM; in test [2] (semi-quantitative class), less than 100 nM; in test [4] (setting [7]), 11 nM; in test [4] (semi-quantitative class), less than 100 nM; in test [3] (semi-quantitative class), 100 to 1000 nM.

Turning to `FC(F)(F)Oc1cccc(-n2nnc3cc(Cl)c(NC4CC5(CCNCC5)C4)nc32)c1` [2-79], the IC50 was more than 1000 nM in test [1]; 40 nM in test [2] (setting [7]); less than 100 nM in test [2] (semi-quantitative class); 33 nM in test [4] (setting [7]); less than 100 nM in test [4] (semi-quantitative class); 100 to 1000 nM in test [3] (semi-quantitative class).

Turning to `CC(C)N1CCC(CNc2ccc3nnn(-c4cccc(OC(F)(F)F)c4)c3n2)CC1` [2-73], the IC50 in test [1] is more than 1000 nM; in test [2] (semi-quantitative class), 100 to 1000 nM; in test [3] (semi-quantitative class), more than 1000 nM.

Consider `CS(=O)(=O)CCNCc1ccc(-c2ccc3ncnc(Nc4ccc(OCc5cccc(F)c5)c(Cl)c4)c3c2)o1` [lapatinib, N-(3-chloro-4-(3-fluorobenzyloxy)phenyl)-6-(5-((2-(methylsulfonyl)ethylamino)-methyl)furan-2-yl)quinazolin-4-amine, reference compound], for which the EC50 amounted to 10000 nM in test [5] (HTC116, colon carcinoma, chemotherapeutic alone); 5000 nM in test [5] (Homo sapiens, JeKo-1, Jeko-1, Mantle cell lymphoma, chemotherapeutic alone); 20000 nM in test [5] (setting [6]); 5000 nM in test [5] (Homo sapiens, MV4-11, MV4:11, leukemia (AML), chemotherapeutic alone); 10000 nM in test [5] (Homo sapiens, NCI-H23, NCIH23, non small cell lung carcinoma, chemotherapeutic alone).

As to `O[C@H]1CC[C@@H](Nc2ccc3nnn(-c4cccc(OC(F)(F)F)c4)c3n2)CC1` [2-68], the Synergy result in test [5] (Jeko-1, combined with lapatinib) is reported as “++ (0.3 < CI < 0.7 (++))”; in test [5] (MV4:11, combined with GDC-0941), “++ (0.3 < CI < 0.7 (++))”.

With `CS(=O)(=O)NC1CCN(c2ccc3nnn(-c4cccc(OC(F)(F)F)c4)c3n2)CC1` [2-80], the IC50 in test [1] is more than 1000 nM; in test [2] (semi-quantitative class), 100 to 1000 nM; in test [4] (semi-quantitative class), 100 to 1000 nM; in test [3] (semi-quantitative class), more than 1000 nM.

For the compound `FC(F)(F)Oc1cccc(-n2nnc3ccc(N4CCC5(CCNCC5)C4)nc32)c1` [2-62], the IC50 in test [1] was more than 1000 nM; in test [2] (semi-quantitative class), 100 to 1000 nM; in test [3] (semi-quantitative class), more than 1000 nM.

For `COc1cc(NCC2CC3(CCNCC3)C2)nc2c1nnn2-c1cccc(N(C)C)c1` [2-94], the IC50 is more than 1000 nM in test [1]; 56 nM in test [2] (setting [7]); less than 100 nM in test [2] (semi-quantitative class); 9 nM in test [4] (setting [7]); less than 100 nM in test [4] (semi-quantitative class); more than 1000 nM in test [3] (semi-quantitative class).

Turning to `FC(F)(F)Oc1cccc(-n2nnc3ccc(N4CCOC5(CCNCC5)C4)nc32)c1` [2-58], the IC50 in test [1] was more than 1000 nM; in test [2] (semi-quantitative class), more than 1000 nM; in test [4] (setting [7]) it was 85 nM; in test [4] (semi-quantitative class), less than 100 nM; in test [3] (semi-quantitative class), more than 1000 nM.

In the case of `FCCN1CCC(CNc2ccc3nnn(-c4cccc(OC(F)(F)F)c4)c3n2)CC1` [2-28], the IC50 in test [1], in test [2] (semi-quantitative class) and in test [3] (semi-quantitative class) was more than 1000 nM in each case.

Take `CS(=O)(=O)N1CCC(Nc2ccc3nnn(-c4cccc(OC(F)(F)F)c4)c3n2)CC1` [2-56]: the half-inhibitory concentration (IC50) is 100 to 1000 nM in test [1]; more than 1000 nM in test [2] (semi-quantitative class); 79 nM in test [4] (setting [7]); less than 100 nM in test [4] (semi-quantitative class); more than 1000 nM in test [3] (semi-quantitative class).

As for `FC(F)(F)Oc1cccc(-n2nnc3cc(Cl)c(N4CCCC5(CCCN5)CC4)nc32)c1` (stereo not drawn) [2-78], the IC50 is more than 1000 nM in test [1]; 56 nM in test [2] (setting [7]); less than 100 nM in test [2] (semi-quantitative class); less than 100 nM in test [4] (semi-quantitative class); 20 nM in test [3] (setting [7]); less than 100 nM in test [3] (semi-quantitative class).

For the compound `FC(F)(F)Oc1cccc(-n2nnc3ccc(N4CCC5(CC4)CNCCO5)nc32)c1` [2-61], the IC50 in test [1] is more than 1000 nM; in test [2] (semi-quantitative class), more than 1000 nM; in test [4] (setting [7]), 74 nM; in test [4] (semi-quantitative class), less than 100 nM; in test [3] (semi-quantitative class), more than 1000 nM.

With `CS(=O)(=O)N1CCN(c2ccc3nnn(-c4cccc(OC(F)(F)F)c4)c3n2)CC1` [2-72], the IC50 in test [1] is more than 1000 nM; in test [2] (semi-quantitative class), more than 1000 nM; in test [4] (semi-quantitative class), 100 to 1000 nM.

For the compound `O=C(NOC[C@H](O)CO)c1ccc(F)c(F)c1Nc1ccc(I)cc1F` [PD-0325901, (R)—N-(2,3-dihydroxypropoxy)-3,4-difluoro-2-(2-fluoro-4-iodophenylamino)benz-amide, reference compound], the concentration giving a half-maximal response (EC50) in test [5] came out at 1250 nM.

With `CCN1CCC(CNc2ccc3nnn(-c4cccc(OC(F)(F)F)c4)c3n2)CC1` [2-76], the results for the IC50 in test [1], in test [2] (semi-quantitative class) and in test [3] (semi-quantitative class) were more than 1000 nM, 100 to 1000 nM and more than 1000 nM, respectively.

As for `O[C@H]1CC[C@@H](CNc2ccc3nnn(-c4cccc(OC(F)(F)F)c4)c3n2)CC1` [2-57], the IC50 in test [1] is more than 1000 nM; in test [2] (semi-quantitative class), 100 to 1000 nM; in test [4] (semi-quantitative class) it was less than 100 nM; in test [3] (semi-quantitative class) it was more than 1000 nM.

For `OCCn1cc(-c2ccc3c(c2)CC/C3=N\O)c(-c2ccncc2)n1` [GDC-0879, reference compound], the EC50 in test [5] (Homo sapiens, SK-MEL19, SKMel19, melanoma, chemotherapeutic alone) came out at 300 nM.

As to `FC(F)(F)c1cccc(-n2nnc3ccc(N4CCCC5(CCCN5)CC4)nc32)c1` (stereo not drawn) [2-81], the IC50 in test [1] is more than 1000 nM; in test [2] (semi-quantitative class), 100 to 1000 nM; in test [4] (setting [7]) it was 71 nM; in test [4] (semi-quantitative class), less than 100 nM; in test [3] (semi-quantitative class), 100 to 1000 nM.

Take `FC(F)(F)c1cccc(-n2nnc3ccc(NCC4CCNCC4)nc32)c1` [2-63]: the IC50 in test [1] was more than 1000 nM; in test [2] (semi-quantitative class), 100 to 1000 nM; in test [3] (semi-quantitative class), more than 1000 nM.

`CN1CCC(CNc2ccc3nnn(-c4cccc(OC(F)(F)F)c4)c3n2)CC1` [2-19, (1-Methyl-piperidin-4-ylmethyl)-[3-(3-trifluoromethoxy-phenyl)-3H-[1,2,3]triazolo[4,5-b]pyridin-5-yl]-amine]: the IC50 in test [1] is more than 1000 nM; in test [2] (semi-quantitative class), 100 to 1000 nM; in test [3] (semi-quantitative class), more than 1000 nM.
